Data on 17 molecules can be found in PubChem BioAssay AID330 (DTP/NCI, 2004).

The subject of this test is P388 leukemia ip, CD2F1 mice, survival T/C. Put plainly: NCI In Vivo Anticancer Drug Screen. Data for tumor model P388 Leukemia (intraperitoneal) in CD2F1 (CDF1) mice. To be noted: endpoint: median survival time, higher = longer survival. An outline of the steps:
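Mice carrying the transplanted tumor received test compound or vehicle. Survival was recorded in each group, and the value is the treated-group measurement divided by that of the vehicle-treated control group.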

The mark [1] stands for this setting: dose: 12.5 mg/kg/injection, schedule: Q01DX009 (ip), vehicle: Klucel (hydroxypropylcellulose) (HPC).
The mark [2] stands for this setting: dose: 50.0 mg/kg/injection, schedule: Q01DX005 (ip), vehicle: saline.
[3] abbreviates: dose: 100.0 mg/kg/injection, schedule: Q01DX005 (ip), vehicle: saline.
Where [4] appears, read: dose: 200.0 mg/kg/injection, schedule: Q01DX005 (ip), vehicle: saline.
Setting [5] is: dose: 60.0 mg/kg/injection, schedule: Q01DX005 (ip), vehicle: saline with Tween-80.
Setting [6] is: dose: 120.0 mg/kg/injection, schedule: Q01DX005 (ip), vehicle: saline with Tween-80.
Where [7] appears, read: dose: 240.0 mg/kg/injection, schedule: Q01DX005 (ip), vehicle: saline with Tween-80.
[8] abbreviates: dose: 25.0 mg/kg/injection, schedule: Q01DX005 (ip), vehicle: Klucel (hydroxypropylcellulose) (HPC).
Setting [9] is: dose: 50.0 mg/kg/injection, schedule: Q01DX005 (ip), vehicle: Klucel (hydroxypropylcellulose) (HPC).
The mark [10] stands for this setting: dose: 100.0 mg/kg/injection, schedule: Q01DX005 (ip), vehicle: Klucel (hydroxypropylcellulose) (HPC).
Where [11] appears, read: dose: 50.0 mg/kg/injection, schedule: Q01DX009 (ip), vehicle: saline with Tween-80.
The mark [12] stands for this setting: dose: 100.0 mg/kg/injection, schedule: Q01DX009 (ip), vehicle: saline with Tween-80.
The mark [13] stands for this setting: dose: 200.0 mg/kg/injection, schedule: Q01DX009 (ip), vehicle: saline with Tween-80.

Several values for one entry are separate records, joined by “and”; a condition that tells them apart may be missing. Equal entries are not always repeated. Inconclusive results and toxic doses are left out.

On to `CB1N(c2ccccc2)N=NN1C(C)(C)C`, for which the T/C (dose: 15.0 mg/kg/injection, schedule: Q01DX005 (ip), vehicle: Klucel (hydroxypropylcellulose) (HPC)) is 97 % of control; the T/C (dose: 30.0 mg/kg/injection, schedule: Q01DX005 (ip), vehicle: Klucel (hydroxypropylcellulose) (HPC)) is 102 % of control; the T/C (dose: 60.0 mg/kg/injection, schedule: Q01DX005 (ip), vehicle: Klucel (hydroxypropylcellulose) (HPC)) is 107 % of control; the T/C (dose: 120.0 mg/kg/injection, schedule: Q01DX005 (ip), vehicle: Klucel (hydroxypropylcellulose) (HPC)) was 110 % of control; the T/C (dose: 240.0 mg/kg/injection, schedule: Q01DX005 (ip), vehicle: Klucel (hydroxypropylcellulose) (HPC)) is 91 % of control.
Consider `C/C(=N/N=C(N)N)c1cnc(N/N=C(\C)c2cnc(NN)nc2C)nc1C`, for which the T/C (dose: 7.5 mg/kg/injection, schedule: Q01DX005 (ip), vehicle: saline) is 103 % of control; the T/C (dose: 15.0 mg/kg/injection, schedule: Q01DX005 (ip), vehicle: saline) was 94 % of control; the T/C (dose: 30.0 mg/kg/injection, schedule: Q01DX005 (ip), vehicle: saline) was 97 % of control.
Consider `CCN(CC)CCNc1ccc(N=Nc2cnc3ccccc3c2)c2ccccc12`, for which the T/C by setting is: under setting [1], 110 % of control; (dose: 12.5 mg/kg/injection, schedule: Q04DX003 (ip), vehicle: Klucel (hydroxypropylcellulose) (HPC)) 109 % of control; (dose: 25.0 mg/kg/injection, schedule: Q01DX009 (ip), vehicle: Klucel (hydroxypropylcellulose) (HPC)) 115 % of control; (dose: 25.0 mg/kg/injection, schedule: Q04DX003 (ip), vehicle: Klucel (hydroxypropylcellulose) (HPC)) 100 % of control; (dose: 50.0 mg/kg/injection, schedule: Q01DX009 (ip), vehicle: Klucel (hydroxypropylcellulose) (HPC)) 115 % of control; (dose: 50.0 mg/kg/injection, schedule: Q04DX003 (ip), vehicle: Klucel (hydroxypropylcellulose) (HPC)) 100 % of control.
In the case of `CCN(CC)CCn1c2c(c3ccc(OC)cc31)CCN1CC3CC(OC(=O)c4cc(OC)c(OC)c(OC)c4)C(OC)C(C(=O)OC)C3CC21` (stereo not given), the T/C was 97 % of control (dose: 25.0 mg/kg/injection, schedule: Q01DX005 (ip), vehicle: saline); 96 % of control under setting [2]; 101 % of control under setting [3]; 106 % of control under setting [4].
Turning to `Cc1cc(=O)n2[nH]c(-c3ccco3)cc2n1`, the T/C under setting [5] is 104 % of control, the T/C under setting [6] was 104 % of control and the T/C under setting [7] is 105 % of control.
In the case of `O=C(c1ccc2cc(Cl)c(Cl)cc2c1)C(Cl)Cl`, the T/C (dose: 1.56 mg/kg/injection, schedule: Q01DX009 (ip), vehicle: Klucel (hydroxypropylcellulose) (HPC)) is 116 % of control; the T/C (dose: 3.12 mg/kg/injection, schedule: Q01DX009 (ip), vehicle: Klucel (hydroxypropylcellulose) (HPC)) was 104 % of control; the T/C (dose: 6.25 mg/kg/injection, schedule: Q01DX009 (ip), vehicle: Klucel (hydroxypropylcellulose) (HPC)) is 101 % of control and 97 % of control; the T/C under setting [1] was 88 % of control.
In the case of `COC(=O)c1[nH]cnc1O`, the T/C is 103 % of control (dose: 50.0 mg/kg/injection, schedule: Q01DX005 (ip), vehicle: water); 113 % of control (dose: 100.0 mg/kg/injection, schedule: Q01DX005 (ip), vehicle: water); 103 % of control (dose: 200.0 mg/kg/injection, schedule: Q01DX005 (ip), vehicle: water).
Consider `Cc1ccc(/C=N/N)s1`, for which the T/C by setting is: (dose: 50.0 mg/kg/injection, schedule: Q04DX003 (ip), vehicle: other) 90 % of control; (dose: 100.0 mg/kg/injection, schedule: Q04DX003 (ip), vehicle: other) 100 % of control; (dose: 200.0 mg/kg/injection, schedule: Q04DX003 (ip), vehicle: other) 100 % of control.
`Cc1ccc(SC(F)(F)C(F)C(F)(F)F)cc1` (stereo not given): the T/C by setting is: under setting [2], 98 % of control; under setting [3], 101 % of control; under setting [4], 100 % of control.
In the case of `c1ccc2c(c1)[nH]c1c2c(N2CCOCC2)nn2cnnc12`, the T/C is 101 % of control (dose: 6.25 mg/kg/injection, schedule: Q01DX005 (ip), vehicle: Klucel (hydroxypropylcellulose) (HPC)); 100 % of control (dose: 12.5 mg/kg/injection, schedule: Q01DX005 (ip), vehicle: Klucel (hydroxypropylcellulose) (HPC)); 89 % of control under setting [8]; 99 % of control under setting [9]; 95 % of control under setting [5]; 100 % of control under setting [10]. Further, the T/C runs as follows: under setting [6], 93 % of control; under setting [7], 98 % of control.
For `CC(=O)C(CCCn1c(=O)c2c(ncn2C)n(C)c1=O)C(C)=O`, the T/C runs as follows: under setting [8], 102 % of control; under setting [9], 105 % of control; under setting [10], 98 % of control.
With `CC(NC(=O)OCc1ccccc1)C(=O)Oc1cc(Cl)c(Cl)cc1Cl` (stereo not given), the T/C under setting [11] was 109 % of control, the T/C under setting [12] was 104 % of control and the T/C under setting [13] is 107 % of control.
For the molecule `CC(=O)/C(=C\C=C\c1ccccc1)C(=O)CCN(C)C`, the T/C is 98 % of control under setting [2], 109 % of control under setting [3] and 118 % of control under setting [4].
Turning to `CSC1SCC2C(=O)N(C)C(C(C)C)C(=O)OCC(NC(=O)c3cnc4ccccc4n3)C(=O)NC(C)C(=O)N(C)C1C(=O)N(C)C(C(C)C)C(=O)OCC(NC(=O)c1cnc3ccccc3n1)C(=O)NC(C)C(=O)N2C` (stereo not given), the T/C runs as follows: (dose: 0.5 micrograms/kg/injection, schedule: Q01DX010 (ip), vehicle: saline) 100 % of control; (dose: 30.0 micrograms/kg/injection, schedule: Q01DX009 (oral), vehicle: saline with Tween-80) 97 % of control; (dose: 60.0 micrograms/kg/injection, schedule: Q01DX009 (ip), vehicle: saline with Tween-80) 205 % of control; (dose: 60.0 micrograms/kg/injection, schedule: Q01DX009 (oral), vehicle: saline with Tween-80) 101 % of control; (dose: 120.0 micrograms/kg/injection, schedule: Q01DX009 (oral), vehicle: saline with Tween-80) 96 % of control; (dose: 240.0 micrograms/kg/injection, schedule: Q01DX009 (ip), vehicle: saline with Tween-80) 117 % of control. In addition, the T/C by setting is: (dose: 240.0 micrograms/kg/injection, schedule: Q01DX009 (oral), vehicle: saline with Tween-80) 99 % of control; (dose: 480.0 micrograms/kg/injection, schedule: Q01DX009 (oral), vehicle: saline with Tween-80) 96 % of control.
On to `CCCCCCC(=O)/C=C/c1ccc(OC(=O)c2ccc(Cl)cc2)cc1`, for which the T/C by setting is: (dose: 6.25 mg/kg/injection, schedule: Q01DX009 (ip), vehicle: saline) 97 % of control; (dose: 12.5 mg/kg/injection, schedule: Q01DX009 (ip), vehicle: saline) 94 % of control; (dose: 25.0 mg/kg/injection, schedule: Q01DX009 (ip), vehicle: saline) 94 % of control; (dose: 100.0 mg/kg/injection, schedule: Q01DX009 (ip), vehicle: saline) 92 % of control; (dose: 200.0 mg/kg/injection, schedule: Q01DX009 (ip), vehicle: saline) 92 % of control.
For the molecule `CC(=O)Oc1[nH]c(=O)c2cccc3c2c1CCC3`, the T/C is 102 % of control (dose: 25.0 mg/kg/injection, schedule: Q01DX009 (ip), vehicle: saline with Tween-80); 101 % of control and 102 % of control under setting [11]; 108 % of control and 112 % of control under setting [12].
As to `CC1=C(c2ccccc2)C2(c3ccccc3)OC(c3ccc([N+](=O)[O-])cc3)=NOC2(C)C1` (stereo not given), the T/C under setting [11] is 93 % of control, the T/C under setting [12] was 93 % of control and the T/C under setting [13] was 96 % of control.
